Data reported in patent US10375962B2, “Heterocycle derivatives as pesticides” (BAYER CROPSCIENCE AKTIENGESELLSCHAFT, priority 2016, dated 2019).
Like-named read-outs stand apart in the source and are kept apart here.

Columns and labels:
[1] = log P by HPLC on a reversed-phase column (C 18), EEC Directive 79/831 Annex V.A8; type: physicochemical; settings: for chromatographic logP: reversed-phase HPLC column (C 18)
Text: Called log P (HCOOH) in the table.
Called log P (neutral) in the table.

[2] = tested on: adult cat fleas (Ctenocephalides felis); assay: Ctenocephalides felis - in vitro contact tests with adult cat fleas; type: in vivo; settings: application rate 5 μg/cm^2; after 48 h
Procedure: For the coating of the test tubes, 9 mg of active compound are first dissolved in 1 ml of acetone p.a. and then diluted to the desired concentration with acetone p.a. 250 μl of the solution are distributed homogeneously on the inner walls and the base of a 25 ml test tube by turning and rocking on an orbital shaker (rocking rotation at 30 rpm for 2 h). With 900 ppm of active compound solution and internal surface area 44.7 cm^2, given homogeneous distribution, an area-based dose of 5 μg/cm^2 is achieved.
After the solvent has evaporated off, the tubes are populated with 5-10 adult cat fleas (Ctenocephalides felis), sealed with a perforated plastic lid and incubated in a horizontal position at room temperature and ambient humidity. After 48 h, efficacy is determined. To this end, the test tubes are stood upright and the fleas are knocked to the base of the tube. Fleas which remain motionless at the base or move in an uncoordinated manner are considered to be dead or moribund.
100% efficacy means that all the fleas were dead or moribund. 0% efficacy means that no fleas were harmed.

[3] = tested on: unfed adult cat fleas (Ctenocephalides felis); assay: Ctenocephalides felis - oral test; type: in vivo; settings: application rate 100 ppm in citrated cattle blood; after 2 days
Procedure: (§1) Solvent: dimethyl sulphoxide
For the purpose of production of a suitable active compound formulation, 10 mg of active compound are mixed with 0.5 ml of dimethyl sulphoxide. Dilution with citrated cattle blood gives the desired concentration.
About 20 unfed adult cat fleas (Ctenocephalides felis) are placed into a chamber which is closed at the top and bottom with gauze. A metal cylinder whose bottom end is closed with parafilm is placed onto the chamber. The cylinder contains the blood/active compound formulation, which can be imbibed by the fleas through the parafilm membrane.
After 2 days, the kill in % is determined. 100% means that all of the fleas have been killed; 0% means that none of the fleas have been killed.

[4] = tested on: L1 larvae of the Australian sheep blowfly (Lucilia cuprina); assay: Lucilia cuprina test; type: in vivo; settings: application rate 100 ppm; after 2 days
Procedure: as §1
To produce a suitable active compound formulation, 10 mg of active compound are mixed with 0.5 ml of dimethyl sulphoxide, and the concentrate is diluted with water to the desired concentration.
About 20 L1 larvae of the Australian sheep blowfly (Lucilia cuprina) are transferred into a test vessel containing minced horsemeat and the active compound formulation of the desired concentration.
After 2 days, the kill in % is determined. 100% means that all the larvae have been killed; 0% means that no larvae have been killed.

[5] = tested on: larvae of the mustard beetle (Phaedon cochleariae); assay: Phaedon cochleariae - spray test; type: in vivo; settings: after 7 days
Procedure: (§2) Solvent: 78.0 parts by weight of acetone • • 1.5 parts by weight of dimethylformamide
(§3) Emulsifier: alkylaryl polyglycol ether
(§4) To produce a suitable active compound formulation, 1 part by weight of active compound is dissolved with the stated parts by weight of solvent and made up with water containing an emulsifier concentration of 1000 ppm until the desired concentration is attained. To produce further test concentrations, the formulation is diluted with emulsifier-containing water.
Discs of Chinese cabbage leaves (Brassica pekinensis) are sprayed with an active compound formulation of the desired concentration and, after drying, populated with larvae of the mustard beetle (Phaedon cochleariae).
After 7 days, the efficacy in % is determined. 100% means that all the beetle larvae have been killed and 0% means that none of the beetle larvae have been killed.

[6] = tested on: caterpillars of the armyworm (Spodoptera frugiperda); assay: Spodoptera frugiperda - spray test; type: in vivo; settings: maize leaf discs, after 7 days
Procedure: Solvent: 78.0 parts by weight of acetone • • 1.5 parts by weight of dimethylformamide Emulsifier: alkylaryl polyglycol ether […] To produce further test concentrations, the formulation is diluted with emulsifier-containing water. Leaf discs of maize (Zea mays) are sprayed with an active compound preparation of the desired concentration and, after drying, populated with caterpillars of the armyworm (Spodoptera frugiperda).

[7] = tested on: green peach aphid (Myzus persicae); assay: Myzus persicae spray test (bell pepper plants); type: in vivo; settings: application rate 20 ppm, after 6 days
Procedure: Solvent: 14 parts by weight of dimethylformamide
as §3
as §4, with “water. If the addition of ammonium salts or/and penetrants is required, these are each added in a concentration of 1000 ppm to the formulation solution.” for “water.”
Bell pepper plants (Capsicum annuum) severely infested with the green peach aphid (Myzus persicae) are treated by spraying with the active compound formulation in the desired concentration.
After 6 days, the kill in % is determined. 100% means that all of the aphids have been killed; 0% means that none of the aphids have been killed.

[8] = tested on: greenhouse red spider mite (Tetranychus urticae); assay: Tetranychus urticae - spray test, OP-resistant; type: in vivo; settings: bean leaf discs, after 6 days
Procedure: as §2, §3, §4
Discs of bean leaves (Phaseolus vulgaris) infested with all stages of the greenhouse red spider mite (Tetranychus urticae) are sprayed with an active compound formulation of the desired concentration.
After 6 days, the efficacy in % is determined. 100% means that all the spider mites have been killed; 0% means that no spider mites have been killed.

[9] = tested on: green peach aphid (Myzus persicae); assay: Myzus persicae - spray test (Chinese cabbage leaf discs); type: in vivo; settings: after 5 days
Procedure: Solvent: 78 parts by weight of acetone • • 1.5 parts by weight of dimethylformamide Emulsifier: alkylaryl polyglycol ether
as §4
Discs of Chinese cabbage leaves (Brassica pekinensis) infested by all stages of the green peach aphid (Myzus persicae) are sprayed with an active compound formulation of the desired concentration.
After 5 days, the efficacy in % is determined. 100% means that all the aphids have been killed and 0% means that none of the aphids have been killed.

[10] = acidic range, pH 2.7, 0.1% aqueous formic acid/acetonitrile, 55° C.
[11] = neutral range, pH 7.8, 0.001 molar aqueous ammonium hydrogencarbonate/acetonitrile, 55° C.

Row | SMILES | LOGP_HCOOH (log P (HCOOH)) [1, 10] | LOGP_NEUTRAL (log P (neutral)) [1, 11] | efficacy (fleas dead or moribund) [2] [%] | efficacy (kill) [3] [%] | efficacy (kill) [4] [%] | efficacy ([5]; application rate 100 g/ha) [%] | efficacy ([5]; application rate 500 g/ha) [%] | efficacy ([6]; application rate 100 g/ha) [%] | efficacy ([6]; application rate 500 g/ha) [%] | efficacy (kill) [7] [%] | LOGP_HCOOH (log P (HCOOH)) ([1]; pH 2.7) | LOGP_NEUTRAL (log P (neutral)) ([1]; pH 7.8) | efficacy ([8]; application rate 100 g/ha) [%] | efficacy ([8]; application rate 500 g/ha) [%] | chromatographic logP ([1]; acidic range, pH 2.7, 0.1% aqueous formic acid/acetonitrile, 55° C., read-out: LOGP_HCOOH (log P (HCOOH))) | chromatographic logP ([1]; neutral range, pH 7.8, 0.001 molar aqueous ammonium hydrogencarbonate/acetonitrile, 55° C., read-out: LOGP_NEUTRAL (log P (neutral))) | efficacy ([9]; application rate 100 g/ha) [%] | efficacy ([9]; application rate 500 g/ha) [%]
1 | CCS(=O)(=O)c1ccc(N2Cc3cccnc3C2)nc1-c1nc2cc(C(F)(F)F)ncc2n1C [Example I-22] | 2.44 | 2.46 | 100 | 100 | 100 | 100 | 100 | 100 | 100 | 99 |  |  |  |  |  |  |  | 
2 | CCS(=O)(=O)c1ccc(-n2cnc3cc(Cl)ccc32)nc1-c1nc2cc(C(F)(F)F)ncc2n1C [Example I-17] |  |  |  | 100 |  | 100 | 100 | 100 | 100 | 90 | 3.19 | 3.12 |  |  |  |  |  | 
3 | CCS(=O)(=O)c1ccc(-n2nnc3ccccc32)nc1-c1nc2cc(C(F)(F)F)ncc2n1C [Example I-39] |  |  |  |  |  |  |  |  |  |  |  | 3.21 | 70 |  |  |  |  | 
4 | CCS(=O)(=O)c1ccc(N2Cc3ccccc3C2=O)nc1-c1nc2cc(C(F)(F)F)ncc2n1C [Example I-31] | 3.32 | 3.28 | 100 |  | 100 | 100 | 100 | 100 | 100 |  |  |  |  | 90 |  |  |  | 
5 | CCS(=O)(=O)c1ccc(-n2cnc3nc(Cl)ccc32)nc1-c1nc2cc(C(F)(F)F)ncc2n1C [Example I-35] |  |  | 100 | 95 |  | 83 | 100 |  |  |  |  | 2.53 |  |  |  |  |  | 
6 | CCS(=O)(=O)c1ccc(N2Cc3ccc(Cl)cc3C2=O)nc1-c1nc2cc(C(F)(F)F)ncc2n1C [Example I-34] |  |  | 100 | 95 | 100 | 100 | 100 | 100 | 100 | 100 | 3.83 | 3.79 |  |  |  |  |  | 
7 | CCS(=O)(=O)c1ccc(-n2ncc3ccc(Cl)cc32)nc1-c1nc2cc(C(F)(F)F)ncc2n1C [Example I-2, 2-[6-(6-Chloroindazol-1-yl)-3-ethylsulphonyl-2-pyridyl]-3-methyl-6-(trifluoromethyl)imidazo[4,5-c]pyridine] |  |  |  |  |  |  |  |  |  |  |  |  |  | 70 | 4.01 | 3.92 |  | 
8 | CCS(=O)(=O)c1ccc(-c2ccc3nn(C)cc3c2)nc1-c1nc2cc(C(F)(F)F)ncc2n1C [Example I-15] |  |  |  |  | 100 | 100 | 100 |  | 100 |  | 2.62 | 2.58 |  | 90 |  |  |  | 
9 | CCS(=O)(=O)c1ccc(N2Cc3ccccc3C2)nc1-c1nc2cc(C(F)(F)F)ncc2n1C [Example I-21] |  |  | 80 | 90 | 100 |  | 83 | 100 | 100 | 100 | 3.59 | 3.63 |  |  |  |  |  | 
10 | CCS(=O)(=O)c1ccc(-n2nc3ccccn3c2=O)nc1-c1nc2cc(C(F)(F)F)ncc2n1C [Example I-43] |  |  |  |  |  |  |  |  |  |  | 2.26 | 2.31 | 90 |  |  |  | 90 | 
11 | CCS(=O)(=O)c1ccc(-n2cnc3ccccc32)nc1-c1nc2cc(C(F)(F)F)ncc2n1C [Example I-24] |  |  | 100 | 95 |  |  | 83 | 83 | 100 |  | 2.66 | 2.64 |  |  |  |  | 100 | 90
